From US5712263A, “Steroid derivatives” (Taisho Pharmaceutical Co., Ltd., priority 1993, dated 1998) come the findings set out here.

The test has as its system KB cells. Put plainly: Growth Inhibition Action on KB cell (in vitro). In kind it is cell-based. Conditions: Homo sapiens, 72 hours incubation, MTT absorbance, final DMSO 0.5%, read-out: IC50 (concentration of 50% growth inhibition) on KB cells. On the procedure:
Experiment: Growth Inhibition Action on KB cell (in vitro)
1×10^3 of KB cells/0.1 ml of a cell suspension in MEM medium containing 10% fetal bovine serum was placed in each well of a plate with 96 flat bottom wells, and incubated for 24 hours. This was dissolved in dimethylsulfoxide, and 100 μl of a solution (final concentration of dimethylsulfoxide: 0.5%) of a test compound diluted with the medium was added thereto, followed by incubation for 72 hours. After incubation, 4,5-dimethylthiazol-2-yl-2,5-diphenyltetrazolium bromide reagent (a color reagent) was added, and the mixture was further incubated for 4 hours.
100 μl of the medium (final concentration of dimethylsulfoxide:0.5%) was added as a control, and incubated in a similar manner. After incubation, the medium was removed, and the cells were dissolved in 150 μl of dimethylsulfoxide and the absorbance was determined. The ratio of the absorbance of the group treated with the test compound to that of the control group was determined, and the concentration of 50% growth inhibition (IC50) was calculated.

In brackets after ≈: the same amount, converted by molar mass.

For `CC(C)C[C@@H](O)[C@@]1([C@H]2CC[C@H]3[C@@H]4CC[C@H]5CC(=O)CC[C@]5(C)[C@H]4C[C@@H](O)[C@]23C)CO1` [Compound (12a)], the IC50 was 0.0965 µg/mL (≈ 0.231 µM).
